The conditions of data set [1]: no reference given; cited from earlier work.
The subject of another data set is HepG2 cell line. The data set can be described thus: MTT assay, cell viability against HepG2. In kind it is cell-based. Conditions: Homo sapiens; for IC50: HepG2, MTT, 48 h; for inhibition at 3.125 µg/mL / inhibition at 6.25 µg/mL / inhibition at 12.5 µg/mL / inhibition at 25 µg/mL / inhibition at 50 µg/mL / inhibition at 100 µg/mL / inhibition at 200 µg/mL: HepG2. Here is the method:
The anti-hepatocellular activity of afforded N-arylated 1,2,4-triazole coupled acetamides (7a–f) was evaluated via MTT assay and these structural hybrids were screened against a liver cancer HepG2 cell line.
The cell viability of all of the compounds was further evaluated using various concentrations ([…]) to test the dose response and % inhibition relationship as shown in Table 2.
Human HepG2 liver cancer cell lines were cultured by Dulbecco’s modified Eagle’s medium. It is composed of 100 μg/mL streptomycin, 100 units/mL penicillin, and 10% FBS. A humidified atmosphere was provided for incubation at 37 °C with 5% CO2. The anti-hepatocellular therapeutic potential of triazole-based scaffolds was evaluated by dissolving its different concentrations in 0.05% DMSO.
An MTT assay was applied for evaluation of cell viability against the HepG2 cell line. In short, different concentrations of new triazole-based scaffolds were incubated with HepG2 cell lines for 48 h. After incubation, 5 mg/mL of 10 µL MTT solution was added in each plate and they were further incubated at 37 °C for 4 h. The percentage of cell viability was calculated at 490 nm after the addition of 150 μL DMSO into a microplate reader (Thermo Scientific, Waltham, MA, USA).

Data set [2] can be described thus: Hemolytic activity, Triton-X-100 as standard. Particulars: relative to Triton-X-100. The text has this:
Hemolytic activity was investigated by the reported method using Triton-X-100 as a standard. Molecule 7f also presented very low toxicity at 1.19 ± 0.02 relative to reference Triton-X-100. All of the other compounds had moderately good hemolytic activity.
Hemolytic activity was investigated by the reported method using Triton-X-100 as standard.

≈ marks a conversion by molar mass, not a printed value.

As usually defined, the IC50 is the midpoint of a concentration-inhibition curve. Higher therefore signals lower potency. In general, melting point refers to the temperature, or range, at which the solid turns liquid. What is called inhibition is the change of the read-out against control, counted positive when it falls. The low end stands for little suppression, the high end for strong suppression.

With `CNC(=O)c1cc(Oc2ccc(NC(=O)Nc3ccc(Cl)c(C(F)(F)F)c3)cc2)ccn1` [Sorafenib, reference compound], in data set [1], the bioavailability is on record as 38–49%. Besides, it took 5.97 µg/mL (≈ 12.8 µM) to reach half-maximal inhibition in the data set with HepG2 cell line (IC50).

For `CC(C)Cc1ccc(C(C)c2nnc(SCC(=O)Nc3ccccc3Cl)n2C)cc1` (stereo not shown) [Compound 7d, N-(2-Chlorophenyl)-2-((5-(1-(4-Isobutylphenyl)Ethyl)-4-Methyl-4H-1,2,4-Triazol-3-yl)Thio)Acetamide], the melting point lay within 123 to 125 °C. In the data set with HepG2 cell line, this molecule displayed an inhibition at 3.125 µg/mL of 14.3 ± 4.27%, an inhibition at 6.25 µg/mL of 17.3 ± 1.4%, an inhibition at 12.5 µg/mL of 19.1 ± 17.7% and an inhibition at 25 µg/mL of 19.5 ± 1.44%. Besides, in the data set on HepG2 cell line, testing at 50 µg/mL gave an inhibition of 76.7 ± 5.63%, testing at 100 µg/mL gave an inhibition of 78.33 ± 0.78%, at 200 µg/mL the inhibition was 87.7 ± 0.18% and it took 39.7 µg/mL (≈ 89.5 µM) to reach half-maximal inhibition (IC50).

With `Cc1ccccc1NC(=O)CSc1nnc(C(C)c2ccc(CC(C)C)cc2)n1C` (stereo not shown) [Compound 7a, N-(2-Methylphenyl)-2-((5-(1-(4-isobutylphenyl)ethyl)-4-methyl-4H-1,2,4-triazol-3-yl)thio)Acetamide], the melting point was 122 to 124 °C. In the data set on HepG2 cell line, this molecule registered an inhibition at 3.125 µg/mL of 11.6%, an inhibition at 6.25 µg/mL of 21.4 ± 6.24%, an inhibition at 12.5 µg/mL of 27.7 ± 6.46% and an inhibition at 25 µg/mL of 64 ± 1.67%. For the same molecule, in the data set with HepG2 cell line, testing at 50 µg/mL gave an inhibition of 75.2 ± 5.99%, testing at 100 µg/mL gave an inhibition of 88.17 ± 0.26%, at 200 µg/mL the inhibition was 89.4 ± 0.34% and half-maximal inhibition (IC50) required 20.7 µg/mL (≈ 48.9 µM).

On to `Cc1cccc(C)c1NC(=O)CSc1nnc(C(C)c2ccc(CC(C)C)cc2)n1C` (stereo not shown) [Compound 7f, N-(2,6-Dimethylphenyl)-2-((5-(1-(4-Isobutylphenyl)Ethyl)-4-Methyl-4H-1,2,4-Triazol-3-yl)Thio)Acetamide], for which the melting point was in the range of 150 to 152 °C. In the data set on HepG2 cell line, this molecule returned an inhibition at 3.125 µg/mL of 8.4 ± 4.54%, an inhibition at 6.25 µg/mL of 19.6 ± 4.07%, an inhibition at 12.5 µg/mL of 34 ± 2.47% and an inhibition at 25 µg/mL of 85.9 ± 0.3%. Also, in the data set on HepG2 cell line, testing at 50 µg/mL gave an inhibition of 86.57 ± 0.56%, testing at 100 µg/mL gave an inhibition of 87.7 ± 1.34%, testing at 200 µg/mL gave an inhibition of 88.36 ± 0.31% and the concentration for half-maximal inhibition (IC50) stood at 16.8 µg/mL (≈ 38.4 µM).

With `CCc1ccc(NC(=O)CSc2nnc(C(C)c3ccc(CC(C)C)cc3)n2C)cc1` (stereo not shown) [Compound 7c, N-(4-Ethylphenyl)-2-((5-(1-(4-Isobutylphenyl)Ethyl)-4-Methyl-4H-1,2,4-Triazol-3-yl)Thio)Acetamide], the melting point is 100 to 102 °C. In the data set with HepG2 cell line, this molecule displayed an inhibition at 3.125 µg/mL of 15.4 ± 2.01%, an inhibition at 6.25 µg/mL of 17.4 ± 1.32%, an inhibition at 12.5 µg/mL of 19.1 ± 1.25% and an inhibition at 25 µg/mL of 22.8 ± 0.29%. In the data set on HepG2 cell line, this molecule yielded an inhibition at 50 µg/mL of 73.7 ± 15.5%, an inhibition at 100 µg/mL of 78.8 ± 10.8%, an inhibition at 200 µg/mL of 87.51 ± 0.2% and an IC50 of 39 µg/mL (≈ 89.3 µM).

On to `CC(C)Cc1ccc(C(C)c2nnc(SCC(=O)Nc3ccccc3)n2C)cc1` (stereo not shown) [Compound 7e, N-(Phenyl)-2-((5-(1-(4-Isobutylphenyl)Ethyl)-4-Methyl-4H-1,2,4-Triazol-3-yl)Thio)Acetamide], for which the melting point fell in the range of 88 to 90 °C. In the data set with HepG2 cell line, this molecule returned an inhibition at 3.125 µg/mL of 18.6 ± 0.5%, an inhibition at 6.25 µg/mL of 20.5 ± 7.11%, an inhibition at 12.5 µg/mL of 21 ± 3.13% and an inhibition at 25 µg/mL of 24 ± 6.12%. In the data set with HepG2 cell line, this molecule had an inhibition at 50 µg/mL of 74.2 ± 13.2%, an inhibition at 100 µg/mL of 87.3 ± 2.09%, an inhibition at 200 µg/mL of 88 ± 1.44% and an IC50 of 39.1 µg/mL (≈ 95.7 µM).

The molecule `Cc1cc(Br)ccc1NC(=O)CSc1nnc(C(C)c2ccc(CC(C)C)cc2)n1C` (stereo not shown) [Compound 7b, N-(4-Bromo-2-Mthylphenyl)-2-((5-(1-(4-Isobutylphenyl)Ethyl)-4-Methyl-4H-1,2,4-Triazol-3-yl)Thio)Acetamide] showed a melting point of 122 to 124 °C. In the data set with HepG2 cell line, at 3.125 µg/mL the inhibition was 10.3%, the inhibition at 6.25 µg/mL came to 24.8 ± 4.62%, the inhibition at 12.5 µg/mL came out at 25.2 ± 4.67% and the inhibition at 25 µg/mL was determined as 31.9 ± 0.3%. Moreover, in the data set on HepG2 cell line, the inhibition at 50 µg/mL was found to be 88.6 ± 1.11%, the inhibition at 100 µg/mL was 89.4 ± 0.91%, the inhibition at 200 µg/mL was found to be 89.5 ± 0.06% and it took 33.6 µg/mL (≈ 66.9 µM) to reach half-maximal inhibition (IC50).

As to Triton-X-100 [reference compound], the figures for the “Hemolytic Activity (Mean% ± S.D)” value in data set [2] and in data set [2] (listed as Triton X100) were 100 ± 0.0% and 100%, respectively.

The values are drawn from PMC9964635, “Bio-Oriented Synthesis and Molecular Docking Studies of 1,2,4-Triazole Based Derivatives as Potential Anti-Cancer Agents against HepG2 Cell Line” (Pharmaceuticals, 2023).
